Counter-ions that a name gives are not always drawn.
Molecular target: T1, human alpha 7-wt nAChR (Homo sapiens, UniProt P36544)
T1 construct: expressed in transfected cells
Experiment: Ca2+ flux imaging (FDSS) (Protocol B)
Assay type: cell-based
Conditions: for Emax: efficacy of 100 μM choline defined as 100% in the absence of a PAM, read-out: a7-PAM-G_[33]_Eff_Curve_FI % Efficacy; for EC50: potentiation of 100 μM choline, compounds 0.01 μM to 30 μM, read-out: a7-PAM-G_[33]_pEC50 pEC50 (converted)
Protocol: Ca^2+ Flux Imaging (FDSS) (Protocol B)
• Hanks buffered saline solution (HBSS, Invitrogen, Belgium), supplemented with 10 mM HEPES (Invitrogen, Belgium), CaCl2 to a final concentration of 5 mM, 0.1% Bovine serum albumin (Sigma-Aldrich NV, Belgium). b) Calcium-Sensitive Dye—Fluo-4AM • Fluo-4AM (Molecular Probes, USA) was dissolved in DMSO containing 10% Pluronic acid (Molecular Probes, USA) to give a stock solution which was diluted in assay buffer supplemented with 5 mM probenicid (Sigma, Aldrich NV, Belgium) to give a final concentration of 2 μM. c) 384-Well Plates • Black-sided, transparent bottomed 384 well plates coated with poly-D-lysine, PDL pre-coated (Corning, Incorporated, USA) d) Calcium Flux Measurement • A Functional drug screening system (FDSS, Hamamatsu) was used to measure intracellular free-calcium flux signals. Method
Monolayers of human alpha 7-wt nAChR-expressing cells were grown in black-sided, transparent bottomed 384 well plates coated with PDL for 24 hours prior to loading with a fluorescent calcium indicator, fluo-4AM for up to 120 minutes.
PAM activity was detected in real time by applying the compounds to be tested to the loaded cells along with an alpha 7 nicotinic receptor agonist during constant monitoring of cellular fluorescence in a FDSS. Compounds giving peak fluorescent responses greater than the response due to agonist alone, were considered to be alpha 7 nAChR PAMs. The alpha 7 nicotinic receptor agonist was choline, applied at a sub-maximal concentration of 100 μM. In a further setting of the present invention the compounds were applied prior to the alpha 7 nicotinic receptor agonist, in a particular 10 minutes prior to the agonist.
A control response to choline was calculated on each plate from the difference in peak in fluorescence in wells receiving either choline or assay buffer alone. Compounds of the present invention were tested at a concentration range from 0.01 μM to 30 μM. Compounds were considered to have an interesting activity when they potentiated the choline signal at least with 200% when tested at a concentration of 30 μM (the efficacy of 100 μM choline was defined as 100% in the absence of a PAM). An EC50 (or pEC50) was determined as a concentration relating to half the maximal effect, when a clear sigmoidal curve with top plateau was obtained.

T1 sequence (P36544 23-502): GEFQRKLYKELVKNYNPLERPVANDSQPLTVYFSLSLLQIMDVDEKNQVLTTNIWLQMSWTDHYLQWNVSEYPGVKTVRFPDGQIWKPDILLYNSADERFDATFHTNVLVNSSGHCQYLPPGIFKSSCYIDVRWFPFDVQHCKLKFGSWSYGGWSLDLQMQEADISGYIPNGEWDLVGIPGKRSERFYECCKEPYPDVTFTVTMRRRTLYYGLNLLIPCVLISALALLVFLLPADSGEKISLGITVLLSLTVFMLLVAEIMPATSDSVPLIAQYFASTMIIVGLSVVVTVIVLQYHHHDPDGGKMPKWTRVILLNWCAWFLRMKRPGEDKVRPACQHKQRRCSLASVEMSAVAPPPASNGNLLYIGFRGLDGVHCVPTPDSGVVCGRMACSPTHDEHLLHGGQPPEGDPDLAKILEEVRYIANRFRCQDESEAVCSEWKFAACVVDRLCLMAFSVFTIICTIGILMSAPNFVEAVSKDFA

Emax [%]	EC50 [nM]	SMILES
299	2090	Cc1cc(-c2sc(N3C[C@@H](C)O[C@@H](C)C3)nc2CNC(=O)C2CCC2)c(C)cn1 [Compound 95, N-[[2-[(2R,6S)-2,6-dimethyl-4-morpholinyl]-5-(2,5-dimethyl-4-pyridinyl)-4-thiazolyl]methyl]-cyclobutanecarboxamide]
–	75.9	Cc1cc(-c2sc(N3C[C@@H](C)O[C@@H](C)C3)nc2CNC(=O)c2snnc2C)cc(C)n1 [Compound 155, N-[[2-[(2R,6S)-2,6-dimethyl-4-morpholinyl]-5-(2,6-dimethyl-4-pyridinyl)-4-thiazolyl]methyl]-4-methyl-1,2,3-thiadiazole-5-carboxamide]
451	1200	COc1cccc(C(=O)NCc2nc(N3C[C@@H](C)O[C@@H](C)C3)sc2-c2cc(C)nc(C)c2)n1 [Compound 140, N-[[2-[(2R,6S)-2,6-dimethyl-4-morpholinyl]-5-(2,6-dimethyl-4-pyridinyl)-4-thiazolyl]methyl]-6-methoxy-2-pyridinecarboxamide]
669	–	Cc1cc(-c2sc(N3C[C@@H](C)O[C@@H](C)C3)nc2CNC(=O)c2ccn(C)n2)cc(C)n1 [Compound 142, N-[[2-[(2R,6S)-2,6-dimethyl-4-morpholinyl]-5-(2,6-dimethyl-4-pyridinyl)-4-thiazolyl]methyl]-1-methyl-1H-pyrazole-3-carboxamide]
685	5010	Cc1cc(-c2sc(N3CCOC[C@@H]3C)nc2CNC(=O)C(C)C)cc(C)n1 [Compound 188, N-[[5-(2,6-dimethyl-4-pyridinyl)-2-[(3S)-3-methyl-4-morpholinyl]-4-thiazolyl]methyl]-2-methyl-propanamide]
923	61.7	Cc1cc(-c2sc(N3C[C@@H](C)O[C@@H](C)C3)nc2CNC(=O)CC2CC2)cc(C2CC2)n1 [Compound 104, N-[[5-(2-cyclopropy1-6-methyl-4-pyridinyl)-2-[(2R,6S)-2,6-dimethyl-4-morpholinyl]-4-thiazolyl]methyl]-cyclopropaneacetamide]
479	759	Cc1cc(-c2sc(N3C[C@@H](C)O[C@@H](C)C3)nc2CNC(=O)c2conc2C)ccn1 [Compound 86, N-[[2-[(2R,6S)-2,6-dimethyl-4-morpholinyl]-5-(2-methyl-4-pyridinyl)-4-thiazolyl]methyl]-3-methyl-4-isoxazolecarboxamide]
702	1450	Cc1cc(-c2sc(N3CCOC(C)(C)C3)nc2CNC(=O)c2conc2C)cc(C)n1 [Compound 182, N-[[2-(2,2-dimethyl-4-morpholinyl)-5-(2,6-dimethyl-4-pyridinyl)-4-thiazolyl]methyl]-3-methyl-4-isoxazolecarboxamide•HCl]
551	513	COc1ccc(C(=O)NCc2nc(N3C[C@@H](C)O[C@@H](C)C3)sc2-c2cc(C)nc(C)c2)cc1 [Compound 30, N-[[2-[(2R,6S)-2,6-dimethyl-4-morpholinyl]-5-(2,6-dimethyl-4-pyridinyl)-4-thiazolyl]methyl]-4-methoxy-benzamide]
631	141	Cc1cc(-c2sc(N3C[C@@H](C)O[C@@H](C)C3)nc2CNC(=O)c2cccc(Cl)c2Cl)cc(C)n1 [Compound 26, 2,3-dichloro-N-[[2-[(2R,6S)-2,6-dimethyl-4-morpholinyl]-5-(2,6-dimethyl-4-pyridinyl)-4-thiazolyl]methyl]-benzamide]
633	4270	Cc1cc(-c2sc(N3CCOCC3)nc2CNC(=O)c2conc2C)cc(C)n1 [Compound 62, N-[[5-(2,6-dimethyl-4-pyridinyl)-2-(4-morpholinyl)-4-thiazolyl]methyl]-3-methyl-4-isoxazolecarboxamide]
149	–	Cc1cc(-c2sc(N3C[C@@H](C)O[C@@H](C)C3)nc2CNC(=O)C2(O)CC2)cc(C)n1 [Compound 176, N-[[2-[(2R,6S)-2,6-dimethyl-4-morpholinyl]-5-(2,6-dimethyl-4-pyridinyl)-4-thiazolyl]methyl]-1-hydroxy-cyclopropanecarboxamide]
495	–	CC(=O)NCc1nc(N2C[C@@H](C)O[C@@H](C)C2)sc1-c1cc(C)nc(C)c1 [Compound 60, N-[[2-[(2R,6S)-2,6-dimethyl-4-morpholinyl]-5-(2,6-dimethyl-4-pyridinyl)-4-thiazolyl]methyl]-acetamide]
230	9330	CC(C)C(=O)NCc1nc(N2CCOCC2)sc1-c1ccncc1 [Compound 115, 2-methyl-N-[[2-(4-morpholinyl)-5-(4-pyridinyl)-4-thiazolyl]methyl]-propanamide]
593	–	Cc1cc(-c2sc(N3C[C@@H](C)O[C@@H](C)C3)nc2CNC(=O)c2sc(C)nc2C)cc(C)n1 [Compound 29, N-[[2-[(2R,6S)-2,6-dimethyl-4-morpholinyl]-5-(2,6-dimethyl-4-pyridinyl)-4-thiazolyl]methyl]-2,4-dimethyl-5-thiazolecarboxamide]
837	4680	Cc1cc(-c2sc(N3C[C@@H](C)O[C@@H](C)C3)nc2CNC(=O)c2cnccn2)cc(C)n1 [Compound 138, N-[[2-[(2R,6S)-2,6-dimethyl-4-morpholinyl]-5-(2,6-dimethyl-4-pyridinyl)-4-thiazolyl]methyl]-2-pyrazinecarboxamide]
–	2750	Cc1cc(-c2sc(N3C[C@@H](C)O[C@@H](C)C3)nc2CNC(=O)c2scnc2C)cc(C)n1 [Compound 153, N-[[2-[(2R,6S)-2,6-dimethyl-4-morpholinyl]-5-(2,6-dimethyl-4-pyridinyl)-4-thiazolyl]methyl]-4-methyl-5-thiazolecarboxamide]
957	12.3	Cc1cc(-c2sc(N3C[C@@H](C)O[C@@H](C)C3)nc2CNC(=O)CC(C)C)cc(C2CC2)n1 [Compound 110, N-[[5-(2-cyclopropy1-6-methyl-4-pyridinyl)-2-[(2R,6S)-2,6-dimethyl-4-morpholinyl]-4-thiazolyl]methyl]-3-methyl-butanamide]
356	–	Cc1ccc(-c2sc(N3C[C@@H](C)O[C@@H](C)C3)nc2CNC(=O)c2ccccc2F)cn1 [Compound 124, N-[[2-[(2R,6S)-2,6-dimethyl-4-morpholinyl]-5-(6-methyl-3-pyridinyl)-4-thiazolyl]methyl]-2-fluoro-benzamide]
519	275	Cc1cc(-c2sc(N3C[C@@H](C)O[C@@H](C)C3)nc2CNC(=O)c2ccc(F)c(C(F)(F)F)c2)cc(C)n1 [Compound 33, N-[[2-[(2R,6S)-2,6-dimethyl-4-morpholinyl]-5-(2,6-dimethyl-4-pyridinyl)-4-thiazolyl]methyl]-4-fluoro-3-(trifluoromethyl)-benzamide]
–	234	Cc1cc(-c2sc(N3CC(C)OC(C)C3)nc2CNC(=O)c2ccc(F)cc2C)cc(C)n1 (racemic) [Compound 56, N-[[2-[2,6-dimethyl-4-morpholinyl]-5-(2,6-dimethyl-4-pyridinyl)-4-thiazolyl]methyl]-4-fluoro-2-methyl-benzamide]
960	60.3	Cc1cc(-c2sc(N3C[C@@H](C)O[C@@H](C)C3)nc2CNC(=O)CCC(C)C)cc(C)n1 [Compound 51, N-[[2-[(2R,6S)-2,6-dimethyl-4-morpholinyl]-5-(2,6-dimethyl-4-pyridinyl)-4-thiazolyl]methyl]-4-methyl-pentanamide]
–	537	Cc1cc(-c2sc(N3C[C@@H](C)O[C@@H](C)C3)nc2CNC(=O)c2cc(C(C)C)on2)cc(C)n1 [Compound 135, N-[[2-[(2R,6S)-2,6-dimethyl-4-morpholinyl]-5-(2,6-dimethyl-4-pyridinyl)-4-thiazolyl]methyl]-5-(1-methylethyl)-3-isoxazolecarboxamide]
403	525	Cc1cc(-c2sc(N3C[C@@H](C)O[C@@H](C)C3)nc2CNC(=O)c2ccccc2)cc(C)n1 [Compound 27, N-[[2-[(2R,6S)-2,6-dimethyl-4-morpholinyl]-5-(2,6-dimethyl-4-pyridinyl)-4-thiazolyl]methyl]-benzamide]
895	288	Cc1cc(-c2sc(N3C[C@@H](C)O[C@@H](C)C3)nc2CNC(=O)c2cc(C)on2)cc(C2CC2)n1 [Compound 105, N-[[5-(2-cyclopropy1-6-methyl-4-pyridinyl)-2-[(2R,6S)-2,6-dimethyl-4-morpholinyl]-4-thiazolyl]methyl]-5-methyl-3-isoxazolecarboxamide]

From patent US8637510B2, “Morpholinothiazoles as alpha 7 positive allosteric modulators” (Janssen Pharmaceutica NV, priority 2009, dated 2014)
